Structures can show the parent of a compound that is named as a salt.
How the values were obtained:
[1] = hygroscopicity (weight gain in humid environment); type: physicochemical
[2] = water solubility; type: physicochemical
[3] = stability of crystal form; type: physicochemical
[4] = bioavailability in laboratory studies in dogs; type: in vivo
[5] = bioavailability in laboratory studies in rats; type: in vivo
[6] = bioavailability in animals; type: in vivo
[7] = chemical stability; type: physicochemical

Structure (SMILES) | weight gain when placed in humid environment ([1]; environment with up to 95% RH) | water solubility ([2]; native pH) | water solubility ([2]; neutral pH) | stability with respect to retaining crystal form [3] | bioavailability [4] | bioavailability [5] | bioavailability [6] | hygroscopicity [1] | chemical stability [7] | chemical stability on storage ([7]; 8 months at 40° C. and 75% RH)
CCCc1nc(Oc2ccc(Cl)cc2)ccc1-c1noc2cc(Cl)c(O[C@@H](C)C(=O)O)cc12 [Crystalline Free Acid Anhydrate, (2S)-2-({6-chloro-3-[6-(4-chlorophenoxy)-2-propylpyridin-3-yl]-1,2-benzisoxazol-5-yl}oxy)propanoic acid] | about 0.2 wt % | very low water solubility | low water solubility | stable with respect to retaining their crystal form | good bioavailability | good bioavailability | good bioavailability |  |  | 
CCCc1nc(Oc2ccc(Cl)cc2)ccc1-c1noc2cc(Cl)c(O[C@@H](C)C(=O)O)cc12 [benzenesulfonate salt] |  |  |  |  |  |  |  | non-hygroscopic | chemically stable | remaining unchanged

From patent US20090264473A1, “Novel Crystalline Forms of Antidiabetic Compounds” (priority 2006, published 2009)
